The record followed here is patent US6509377B1, “Use of a 2-hydroxy-4-trifluoromethylbenzoic acid derivatives as inhibitors of the activation of the nuclear transcription factor NF-κB” (J. Uriach & Cia, S.A., priority 1999, dated 2003).

One data set has as its system iNOS. In words: iNOS expression measured as nitrite production induced by immune complexes in rat peritoneal macrophages. The note with it: Peritoneal macrophage, 100 μg/ml IgG/ovalbumin, nitrite after 24 hours, mean ± SEM, read-out: IC50, production of nitrite (NO) induced by immune complexes. The format is cell-based. Here is the method:
Rat peritoneal cells were obtained and resuspended in DMEM culture medium in the absence of serum and supplemented with antibiotics. Macrophages were isolated by their ability to adhere to culture plates following incubation for 2 hours at 37° C. Non-adherent cells were removed and it was then checked that more than 95% of the adherent cells were macrophages, as assessed by their ability to engulf zymosan particles and nonspecific esterase staining. Culture plates were kept at 37° C. under a 5% CO2 atmosphere, and the peritoneal macrophages adhered to the plates were incubated with 100 μg/ml IgG/ovalbumin immune complexes in the presence or absence (Control) of triflusal or HTB (0.1-20 mM, both). Drugs were added 10 minutes before the addition of IgG/ovalbumin and the production of NO was determined as the nitrite present after 24 hours.
iNOS expression was indirectly measured as the production of NO. NO released from macrophage cultures was determined indirectly by the accumulation of nitrites. […] 50 μl naphthylenediamine (1 mM final concentration) were added and after 15 minutes of incubation the absorbance of the sample was measured at 548 nm and was compared with a NaNO2 standard. The production of NO was expressed as nmol NO2^−/mg protein.

The nature of data set [1]: Cell viability of 143.98.2 cells (EZ4U). The data set is classed as cell-based. Particulars: human, read-out: Percentage of cell viability. As to the method:
Several cell lines obtained from the American Type Culture Collection (ATCC) were cultured at 37° C. and under a 5% CO2 atmosphere. Each cell line was grown in an appropriate culture medium and within the exponential phase (Table I).
For the cell viability studies 24-well plates were used, where 0.5×10^6 cells/ml (for 24-hour studies), 0.25×10^6 cells/ml (for 48-hour studies) or 0.125×10^6 cells/ml (for 72-hour studies) were incubated. Next, different concentrations of HTB (1-3 mM) were added and cells were incubated for different time periods (37° C., 5% CO2). After incubation, the supernatant from each well was extracted, and cells were washed with culture medium without fetal calf serum. Then, the supernatant was extracted and 200 μl culture medium without fetal calf serum were added to each well. In addition, 20 μl substrate were added to determine cell viability. This method is based on the ability of viable cells to transform the colourless substrate into a coloured substance that is excreted to the supernatant (EZ4U, Biomedica Gmbh.). After incubating cells for 1 hour at 37° C. and 5% CO2, 200 μl supernatant were collected and the absorbance was measured at 450 nm.
The absorbance was also determined at 620 nm as a measure of the existing non-specific value.

For data set [2], the system named is cocultures of rat neurons and astrocytes. The data set can be described thus: Neuronal cell death in cocultures of neurons and astrocytes induced by oxygen-glucose deprivation (OGD). The format is cell-based. Particulars: 4 h OGD, 24-hour recovery; triflusal 10 and 30 μg/ml; HTB 20 and 100 μg/ml. Here is the method: To carry out this study, an in vitro model of neuronal ischemia based on cocultures of neurons and glial cells was used. Primary cultures of type 1 astrocytes were prepared from 1-day old Wistar rats. Astrocytes were plated onto 60 mm, poly-D-lysine-coated plates. These cells were allowed to grow until they were confluent (about 11 days) and then rat primary neurons were plated onto them and were allowed to grow for 10 days. In addition, separate cultures of each one of the two types of cells were prepared.
Half of the cultures were exposed for four hours to oxygenlucose deprivation (OGD), followed by a 24-hour recovery period. Both the cells exposed to OGD and control cells, were treated at the start of OGD with 0, 10 and 30 μg/ml triflusal in a series of experiments and with 0, 20 and 100 μg/ml HTB in another series. After the 24-hour recovery period, the release of lactate dehydrogenase (LDH) into the medium was determined as a measure of cellular death, as well as the degree of apoptosis in the cultures (using the TUNEL assay) and total neuron and astrocyte counts present in the coculture (using Hoescht staining).

Another data set relates to TNF-α. The data set can be described thus: TNF-α production induced by LPS in human PBMC (enzymatic immunoassay). The note with it: LPS 10 μg/ml, 19 hours. The data set is classed as cell-based. As to the method:
Mononuclear cells (PBMC) were obtained from blood of healthy donors from the Hospital de Sant Pau (Barcelona) following the procedure described in example 3. Cells were diluted at a concentration of 2 million/ml in RPMI medium supplemented with 10% fetal calf serum and were incubated (37° C., 5% CO2) with triflusal, HTB or vehicle (DMSO) in the presence of 10 μg/ml E.coli lipopolysaccharide (LPS, 026:B6 serotype; Sigma), for 19 hours. The cell suspension was then centrifuged at 2,000 g for 10 minutes at 4° C., and the resulting supernatant was stored at −70° C. for later analysis. The cytokine content was determined by enzymatic immunoassay, after 1/100 dilution of the samples.

Data set [3] can be described thus: Adjuvant-induced arthritis in the rat. The data set is classed as in vivo. The note with it: 10 mg/kg p.o. daily for 28 days, day 28. As to the method: Adjuvant-induced arthritis is characterized by the development, from day 14 after adjuvant injection, of a chronic inflammation of immunological origin in several joints, with accumulation of inflammatory cells and release of cytokines. For this study, male Lewis rats with body weight between 100 and 150 g were used. Before the start of the study animals were acclimated for a period of at least 5 days. Animals were fasted for 18 hours before the study, with water ad libitum. Throughout the study, animals were allowed free access to drinking water, except during observation periods. Groups of five animals were randomized (Sham, Control and Triflusal). The duration of the study was 28 days. Arthritis was induced on day 1 of the study by subplantar administration of 0.1 ml of an emulsion formed with 10 mg M. butyricum and 10 ml Freund's incomplete adjuvant (Difco) to the right hindpaw of the animals from the Control and Triflusal groups. Sham animals received 0.1 ml Freund's incomplete adjuvant. […] On day 28 of the development of arthritis, the volume of the contralateral paw to that receiving the adjuvant injection was determined using a UGO BASILE 7150 plethysmometer. The inhibition of the increase in volume was calculated as follows: % Inh.=100−((T-S)/(C-S))*100 Where: T=Triflusal group; C=Control group; and S=Sham group

In the case of `O=C(O)c1ccc(C(F)(F)F)cc1O` [HTB, 2-hydroxy-4-trifluoromethylbenzoic acid], the 50% inhibitory concentration (IC50) with iNOS is 1840 ± 340 µM. For the same compound, the viability at 0 h, 1 mM in data set [1] (143.98.2 cells (osteosarcoma), 1 mM HTB, 0 hours) is 100%. Besides, the viability at 2 h, 1 mM in data set [1] (143.98.2 cells (osteosarcoma), 1 mM HTB, 2 hours) is 100%. Further, the viability at 5 h, 1 mM in data set [1] (143.98.2 cells (osteosarcoma), 1 mM HTB, 5 hours) is 100%. Moreover, the viability at 24 h, 1 mM in data set [1] (143.98.2 cells (osteosarcoma), 1 mM HTB, 24 hours) was 93.9%. In data set [1] (143.98.2 cells (osteosarcoma), 1 mM HTB, 48 hours), the viability at 48 h, 1 mM stood at 83.2%. The viability at 72 h, 1 mM in data set [1] (143.98.2 cells (osteosarcoma), 1 mM HTB, 72 hours) turned out to be 50.4%. Moreover, in data set [1] (143.98.2 cells (osteosarcoma), 3 mM HTB, 0 hours), the viability at 0 h, 3 mM came to 100%. Further, the viability at 2 h, 3 mM in data set [1] (143.98.2 osteosarcoma cells, 3 mM HTB, 2 hours) was found to be 98.1%. Also, in data set [1] (143.98.2 osteosarcoma cells, 3 mM HTB, 5 hours), the viability at 5 h, 3 mM amounted to 82.7%. For the same compound, in data set [1] (143.98.2 osteosarcoma cells, 3 mM HTB, 24 hours), the viability at 24 h, 3 mM came out at 52.2%. The viability at 48 h, 3 mM in data set [1] (143.98.2 osteosarcoma cells, 3 mM HTB, 48 hours) was 16.1%. Besides, in data set [2], the “increase in LDH release induced by OGD” value is “completely inhibited” and the “increase in number of apoptotic neurons induced by OGD (TUNEL)” value is “completely inhibited”. For the same compound, the “inhibition of LPS-induced TNF-α production” value in the data set with TNF-α (0.3 mM) is listed as “almost completely inhibit”. The “inhibition of LPS-induced TNF-α production” value in the data set on TNF-α (1 mM) is recorded as “almost completely inhibit”.
Take `CC(=O)Oc1cc(C(F)(F)F)ccc1C(=O)O` [triflusal, 2-Acetyloxy-4-trifluoromethylbenzoic acid, reference compound]: in data set [3], the “inhibition of the increase in volume of the contralateral paw” value was found to be 63.1±8.0%. Moreover, in the data set with iNOS, the IC50 turned out to be 1130 ± 120 µM. In data set [2], the “increase in LDH release induced by OGD” value is given as “completely inhibited” and the “increase in number of apoptotic neurons induced by OGD (TUNEL)” value is given as “completely inhibited”. Further, the “inhibition of LPS-induced TNF-α production” value in the data set with TNF-α (0.3 mM) is on record as “almost completely inhibit”. The “inhibition of LPS-induced TNF-α production” value with TNF-α (1 mM) was “almost completely inhibit”.
